This is an account of results in patent publication US10736883B2, “Triazole furan compounds as agonists of the APJ receptor” (AMGEN INC., priority 2016, dated 2020).

The assay has as its target APJ receptor (Homo sapiens (Human), UniProt P35414). The experiment in a line: [35S]GTPγS binding assay on membranes from CHO cells stably expressing human APJ receptor. Particulars: membranes of CHO cells stably expressing human APJ receptor, means of several independent experiments, read-out: Activity hAPJ SPA EC50 IP. The format is biochemical. How it is done:
The human APJ receptor was cloned by polymerase chain reaction and the gene encoding the receptor was subcloned in pFLAG-CMV™-3 expression vector (Sigma, Saint Louis, Mo. USA) in-house at Amgen. A GTPγS binding assay was performed on membranes prepared from CHO cells stably expressing human APJ receptor. The optimum experimental conditions for the concentrations of GDP, MgCl2, and NaCl in the assay buffer were initially determined. The assay was performed in assay buffer [20 mM HEPES, pH 7.5, 5 mM MgCl2, and 0.1% (w/v) BSA with 200 mM NaCl, 3 μM GDP] and membranes expressing human APJ receptor/well along with WGA PS beads. The reaction was initiated by addition of 0.2 nM [^35S]GTPγS (Perkin Elmer Life and Analytical Sciences, Waltham USA) in the absence or presence of various ligands and incubated at RT for 90 min. Nonspecific binding was determined in the presence of 100 μM GTPγS and was always less than 0.2% of total binding. All the results presented are means of several independent experiments and analyzed by non-linear regression methods using commercially available program Prism (GraphPad, San Diego, Calif.) to obtain EC50 detailed in Table 26.
For orientation: GTPγS resists hydrolysis and so accumulates on activated G proteins.

APJ receptor, sequence (P35414 whole entry): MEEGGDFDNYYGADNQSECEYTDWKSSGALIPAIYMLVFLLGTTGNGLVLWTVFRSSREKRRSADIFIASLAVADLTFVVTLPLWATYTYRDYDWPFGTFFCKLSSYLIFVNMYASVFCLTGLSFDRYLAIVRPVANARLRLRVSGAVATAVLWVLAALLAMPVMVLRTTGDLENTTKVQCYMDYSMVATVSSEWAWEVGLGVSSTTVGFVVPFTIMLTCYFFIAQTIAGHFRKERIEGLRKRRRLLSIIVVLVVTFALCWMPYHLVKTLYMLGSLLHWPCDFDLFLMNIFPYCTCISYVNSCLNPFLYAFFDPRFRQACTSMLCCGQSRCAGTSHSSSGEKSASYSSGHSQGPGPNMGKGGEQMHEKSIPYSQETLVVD

Consider `COc1cccc(OC)c1-n1c(NS(=O)(=O)[C@H]2C[C@@H](O)CN(c3ncc(F)cn3)C2)nnc1-c1ccc(C)o1` (single isomer, unassigned) [Example 323.0, (3S,5R)—N-(4-(2,6-Dimethoxyphenyl)-5-(5-methyl-2-furanyl)-4H-1,2,4-triazol-3-yl)-1-(5-fluoro-2-pyrimidinyl)-5-hydroxy-3-piperidinesulfonamide or (3R,5S)—N-(4-(2,6-dimethoxyphenyl)-5-(5-methyl-2-furanyl)-4H-1,2,4-triazol-3-yl)-1-(5-fluoro-2-pyrimidinyl)-5-hydroxy-3-piperidinesulfonamide], for which the EC50 came out at 0.2 nM. The value for `COc1cccc(OC)c1-n1c(NS(=O)(=O)[C@H]2CON(C)[C@@H]2c2ncc(F)cn2)nnc1-c1ccco1` (single isomer, unassigned) [Example 343.0, (3R,4R)—N-(4-(2,6-Dimethoxyphenyl)-5-(furan-2-yl)-4H-1,2,4-triazol-3-yl)-3-(5-fluoropyrimidin-2-yl)-2-methylisoxazolidine-4-sulfonamide or (3S,4S)—N-(4-(2,6-dimethoxyphenyl)-5-(furan-2-yl)-4H-1,2,4-triazol-3-yl)-3-(5-fluoropyrimidin-2-yl)-2-methylisoxazolidine-4-sulfonamide] was 200 nM. Next, `COc1cccc(OC)c1-n1c(NS(=O)(=O)[C@H]2C[C@@H](O)CN(c3cc(C#N)ccn3)C2)nnc1-c1ccc(C)o1` (racemic) [Example 333.0, (3S,5R)-1-(4-Cyanopyridin-2-yl)-N-(4-(2,6-dimethoxyphenyl)-5-(5-methylfuran-2-yl)-4H-1,2,4-triazol-3-yl)-5-hydroxypiperidine-3-sulfonamide and (3R,5S)-1-(4-cyanopyridin-2-yl)-N-(4-(2,6-dimethoxyphenyl)-5-(5-methylfuran-2-yl)-4H-1,2,4-triazol-3-yl)-5-hydroxypiperidine-3-sulfonamide]: 0.45 nM; `COc1cccc(OC)c1-n1c(NS(=O)(=O)[C@H](C)Cc2ccc(C#N)cn2)nnc1-c1ccco1` (single isomer, unassigned) [Example 30.0, (2R)-1-(5-cyano-2-pyridinyl)-N-(4-(2,6-dimethoxyphenyl)-5-(2-furanyl)-4H-1,2,4-triazol-3-yl)-2-propanesulfonamide or (2S)-1-(5-cyano-2-pyridinyl)-N-(4-(2,6-dimethoxyphenyl)-5-(2-furanyl)-4H-1,2,4-triazol-3-yl)-2-propanesulfonamide]: 1.2 nM; `COc1cccc(OC)c1-n1c(NS(=O)(=O)C[C@@H](C)c2ncc(F)cn2)nnc1-c1ccc(C)o1` (single isomer, unassigned) [Example 126.0, (S)—N-(4-(2,6-Dimethoxyphenyl)-5-(5-methylfuran-2-yl)-4H-1,2,4-triazol-3-yl)-2-(5-fluoropyrimidin-2-yl)propane-1-sulfonamide or (R)—N-(4-(2,6-dimethoxyphenyl)-5-(5-methylfuran-2-yl)-4H-1,2,4-triazol-3-yl)-2-(5-fluoropyrimidin-2-yl)propane-1-sulfonamide]: 0.45 nM. As to `C[C@@H](Cc1ncc(F)cn1)S(=O)(=O)Nc1nnc(-c2ccco2)n1-c1ccccc1C(F)(F)F` [Example 318.0, (2S)-1-(5-Fluoro-2-pyrimidinyl)-N-(5-(2-furanyl)-4-(2-(trifluoromethyl)phenyl)-4H-1,2,4-triazol-3-yl)-2-propanesulfonamide and (2S)-1-(5-fluoro-2-pyrimidinyl)-N-(5-(2-furanyl)-4-(2-(trifluoromethyl)phenyl)-4H-1,2,4-triazol-3-yl)-2-propanesulfonamide], the 50% effective concentration (EC50) was 420 nM.

In the case of `COc1cccc(OC)c1-n1c(NS(=O)(=O)[C@@H]2C[C@H]2c2ccc(Cl)cc2)nnc1-c1ccco1` (single isomer, unassigned) [Example 192.0, (1R,2S)-2-(4-Chlorophenyl)-N-(4-(2,6-dimethoxyphenyl)-5-(2-furanyl)-4H-1,2,4-triazol-3-yl)cyclopropanesulfonamide or (1S,2R)-2-(4-chlorophenyl)-N-(4-(2,6-dimethoxyphenyl)-5-(2-furanyl)-4H-1,2,4-triazol-3-yl)cyclopropanesulfonamide], the EC50 came out at 2.8 nM. Regarding `COc1cccc(OC)c1-n1c(NS(=O)(=O)[C@H]2C[C@@H](C(=O)N3CCC3)CN(c3ncc(F)cn3)C2)nnc1-c1ccco1` (single isomer, unassigned) [Example 162.0, (3R,5S)-5-(1-Azetidinylcarbonyl)-N-(4-(2,6-dimethoxyphenyl)-5-(2-furanyl)-4H-1,2,4-triazol-3-yl)-1-(5-fluoro-2-pyrimidinyl)-3-piperidinesulfonamide or (3S,5R)-5-(1-azetidinylcarbonyl)-N-(4-(2,6-dimethoxyphenyl)-5-(2-furanyl)-4H-1,2,4-triazol-3-yl)-1-(5-fluoro-2-pyrimidinyl)-3-piperidinesulfonamide], the 50% effective concentration (EC50) was found to be 0.68 nM. `COc1ncnc(OC)c1-n1c(NS(=O)(=O)CCc2ccc(Cl)cc2)nnc1-c1ccco1` [Example 253.0, 2-(4-Chlorophenyl)-N-(4-(4,6-dimethoxy-5-pyrimidinyl)-5-(2-furanyl)-4H-1,2,4-triazol-3-yl)ethanesulfonamide]: the concentration giving a half-maximal response (EC50) worked out at 15 nM.

On to `CCN(CC)C(=O)c1cc(Cl)cnc1C[C@@H](C)S(=O)(=O)Nc1nnc(-c2ccco2)n1-c1c(OC)cccc1OC` (single isomer, unassigned) [Example 21.0, 5-chloro-2-((2R)-2-((4-(2,6-dimethoxyphenyl)-5-(2-furanyl)-4H-1,2,4-triazol-3-yl)sulfamoyl)propyl)-N,N-diethyl-3-pyridinecarboxamide or 5-chloro-2-((2S)-2-((4-(2,6-dimethoxyphenyl)-5-(2-furanyl)-4H-1,2,4-triazol-3-yl)sulfamoyl)propyl)-N,N-diethyl-3-pyridinecarboxamide], for which the EC50 stood at 0.31 nM.

Turning to `COc1cccc(OC)c1-n1c(NS(=O)(=O)[C@@H](C)[C@@](C)(O)c2ncc(F)cn2)nnc1-c1ccc(C)o1` [Example 242.0, (2S,3S)—N-(4-(2,6-Dimethoxyphenyl)-5-(5-methyl-2-furanyl)-4H-1,2,4-triazol-3-yl)-3-(5-fluoro-2-pyrimidinyl)-3-hydroxy-2-butanesulfonamide], the EC50 stood at 0.81 nM. As for `Cc1ccc(-c2nnc(NS(=O)(=O)[C@@H](C)[C@H](C)c3ncc(F)cn3)n2C2CCOCC2)o1` [Example 182.0, (2S,3R)-3-(5-Fluoro-2-pyrimidinyl)-N-(5-(5-methyl-2-furanyl)-4-(tetrahydro-2H-pyran-4-yl)-4H-1,2,4-triazol-3-yl)-2-butanesulfonamide], the EC50 was found to be 26 nM. Take `COc1cccc(OC)c1-n1c(NS(=O)(=O)[C@@H](C)Cc2ncc(Cl)cc2C#N)nnc1-c1ccco1` (mixture of isomers) [Example 18.0, (2S)-1-(5-chloro-3-cyano-2-pyridinyl)-N-(4-(2,6-dimethoxyphenyl)-5-(2-furanyl)-4H-1,2,4-triazol-3-yl)-2-propanesulfonamide and (2R)-1-(5-chloro-3-cyano-2-pyridinyl)-N-(4-(2,6-dimethoxyphenyl)-5-(2-furanyl)-4H-1,2,4-triazol-3-yl)-2-propanesulfonamide]: the EC50 was found to be 0.28 nM.

On to `COc1cccc(OC)c1-n1c(NS(=O)(=O)[C@H]2C[C@@H](O)CN(c3nc(C)cc(C)n3)C2)nnc1-c1ccc(C)o1` (racemic) [Example 326.0, (3S,5R)—N-(4-(2,6-Dimethoxyphenyl)-5-(5-methylfuran-2-yl)-4H-1,2,4-triazol-3-yl)-1-(4,6-dimethylpyrimidin-2-yl)-5-hydroxypiperidine-3-sulfonamide and (3R,5S)—N-(4-(2,6-dimethoxyphenyl)-5-(5-methylfuran-2-yl)-4H-1,2,4-triazol-3-yl)-1-(4,6-dimethylpyrimidin-2-yl)-5-hydroxypiperidine-3-sulfonamide], for which the EC50 was 0.24 nM.

`COc1cccc(OC)c1-n1c(NS(=O)(=O)[C@H]2CNC[C@H](c3ccc(F)cc3)C2)nnc1-c1ccco1` (single isomer, unassigned) [Example 188.0, (3R,5S)—N-(4-(2,6-Dimethoxyphenyl)-5-(2-furanyl)-4H-1,2,4-triazol-3-yl)-5-(4-fluorophenyl)-3-piperidinesulfonamide or (3S,5R)—N-(4-(2,6-dimethoxyphenyl)-5-(2-furanyl)-4H-1,2,4-triazol-3-yl)-5-(4-fluorophenyl)-3-piperidinesulfonamide]: the EC50 is 75 nM. `COC[C@H]1CCCC(=O)N1C[C@@H](C)S(=O)(=O)Nc1nnc(-c2ccc(C)o2)n1-c1c(OC)cccc1OC` (single isomer, unassigned) [Example 185.0]: the EC50 is 33 nM. With `COc1cccc(OC)c1-n1c(NS(=O)(=O)[C@H](C)[C@@H](C)c2ncc(F)cn2)nnc1-c1ccc(C)o1` [Example 109.0], the concentration giving a half-maximal response (EC50) amounted to 0.87 nM.

On to `COc1cccc(OC)c1-n1c(NS(=O)(=O)[C@H](C)Cc2ncc(Br)cn2)nnc1-c1ccco1` (single isomer, unassigned) [Example 36.0, (2R)-1-(5-bromo-2-pyrimidinyl)-N-(4-(2,6-dimethoxyphenyl)-5-(2-furanyl)-4H-1,2,4-triazol-3-yl)-2-propanesulfonamide or (2S)-1-(5-bromo-2-pyrimidinyl)-N-(4-(2,6-dimethoxyphenyl)-5-(2-furanyl)-4H-1,2,4-triazol-3-yl)-2-propanesulfonamide], for which the EC50 was determined as 3.5 nM.

As a reminder, the EC50 is the concentration needed to bring the measured effect to its halfway point.
